Tests used:
Assay in all cases: relative viability (nuclei count vs DMSO), 5 days (fraction); higher = more cells survive
LXF-289 = test system: LXF-289
Procedure, shortened: (§1)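 Relative viability was taken as the ratio of nuclei in treated wells to nuclei in vehicle wells. Lung cancer cell lines in 1536-well plates received compounds by pin tool one day after seeding, either one drug alone or a fixed anchor-drug dose plus five library-drug doses (not always all listed) in √10 steps. Nuclei were counted on 4× images after 5 days of treatment, and values are medians of duplicate plates.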

EMC-BAC-2 = test system: EMC-BAC-2
Procedure, shortened: as §1

NCI-H2126 = test system: NCI-H2126
Procedure, shortened: as §1

NCI-H1993 = test system: NCI-H1993
Procedure, shortened: as §1

H3255 = test system: H3255
Procedure, shortened: as §1

HOP-62 = test system: HOP-62
Procedure, shortened: as §1

NCI-H322M = test system: NCI-H322M
Procedure, shortened: as §1

NCI-H727 = test system: NCI-H727
Procedure, shortened: as §1

NCI-H2347 = test system: NCI-H2347
Procedure, shortened: as §1

NCI-H358 = test system: NCI-H358
Procedure, shortened: as §1

BEN = test system: BEN
Procedure, shortened: as §1

NCI-H2342 = test system: NCI-H2342
Procedure, shortened: as §1

PC-14 = test system: PC-14
Procedure, shortened: as §1

NCI-H1915 = test system: NCI-H1915
Procedure, shortened: as §1

NCI-H2085 = test system: NCI-H2085
Procedure, shortened: as §1

NCI-H647 = test system: NCI-H647
Procedure, shortened: as §1

LCLC-97TM1 = test system: LCLC-97TM1
Procedure, shortened: as §1

C[C@@H]1CN(CC(=O)Nc2ccc3c(c2)Cc2cccc(-c4cc(=O)cc(N5CCOCC5)o4)c2S3)C[C@H](C)O1 + NC(=O)Nc1cc(-c2cccc(F)c2)sc1C(=O)N[C@H]1CCCNC1 [AZD7762] (partner 0.2 µM)
relative viability (LXF-289; first compound 0.04 µM): 1.05 | relative viability (LXF-289; first compound 0.1265 µM): 1.12 | relative viability (LXF-289; first compound 0.4 µM): 1.19 | relative viability (LXF-289; first compound 4 µM): 1.04 | relative viability (EMC-BAC-2; first compound 0.04 µM): 1.1 | relative viability (EMC-BAC-2; first compound 0.1265 µM): 1.15 | relative viability (EMC-BAC-2; first compound 0.4 µM): 1.08 | relative viability (EMC-BAC-2; first compound 4 µM): 1.24 | relative viability (NCI-H2126; first compound 0.04 µM): 0.91 | relative viability (NCI-H2126; first compound 0.1265 µM): 1.02 | relative viability (NCI-H2126; first compound 0.4 µM): 0.964 | relative viability (NCI-H2126; first compound 4 µM): 1.02 | relative viability (NCI-H1993; first compound 0.04 µM): 0.752 | relative viability (NCI-H1993; first compound 0.1265 µM): 0.737 | relative viability (NCI-H1993; first compound 0.4 µM): 0.611 | relative viability (NCI-H1993; first compound 4 µM): 0.55 | relative viability (H3255; first compound 0.04 µM): 0.792 | relative viability (H3255; first compound 0.1265 µM): 0.765 | relative viability (H3255; first compound 0.4 µM): 0.943 | relative viability (H3255; first compound 4 µM): 0.725 | relative viability (HOP-62; first compound 0.04 µM): 0.445 | relative viability (HOP-62; first compound 0.1265 µM): 0.599 | relative viability (HOP-62; first compound 0.4 µM): 0.739 | relative viability (HOP-62; first compound 4 µM): 0.624 | relative viability (NCI-H322M; first compound 0.04 µM): 0.527 | relative viability (NCI-H322M; first compound 0.1265 µM): 0.546 | relative viability (NCI-H322M; first compound 0.4 µM): 0.702 | relative viability (NCI-H322M; first compound 4 µM): 0.56 | relative viability (NCI-H727; first compound 0.04 µM): 0.525 | relative viability (NCI-H727; first compound 0.1265 µM): 0.625 | relative viability (NCI-H727; first compound 0.4 µM): 0.501 | relative viability (NCI-H727; first compound 4 µM): 0.7 | relative viability (NCI-H2347; first compound 0.04 µM): 0.811 | relative viability (NCI-H2347; first compound 0.1265 µM): 0.913 | relative viability (NCI-H2347; first compound 0.4 µM): 0.625 | relative viability (NCI-H2347; first compound 4 µM): 0.611 | relative viability (NCI-H358; first compound 0.04 µM): 0.463 | relative viability (NCI-H358; first compound 0.1265 µM): 0.416 | relative viability (NCI-H358; first compound 0.4 µM): 0.539 | relative viability (NCI-H358; first compound 4 µM): 0.365 | relative viability (BEN; first compound 0.04 µM): 0.612 | relative viability (BEN; first compound 0.1265 µM): 0.566 | relative viability (BEN; first compound 0.4 µM): 0.625 | relative viability (BEN; first compound 4 µM): 0.645 | relative viability (NCI-H2342; first compound 0.04 µM): 0.499 | relative viability (NCI-H2342; first compound 0.1265 µM): 0.495 | relative viability (NCI-H2342; first compound 0.4 µM): 0.492 | relative viability (NCI-H2342; first compound 4 µM): 0.441 | relative viability (PC-14; first compound 0.04 µM): 0.289 | relative viability (PC-14; first compound 0.1265 µM): 0.308 | relative viability (PC-14; first compound 0.4 µM): 0.32 | relative viability (PC-14; first compound 4 µM): 0.276 | relative viability (NCI-H1915; first compound 0.04 µM): 0.575 | relative viability (NCI-H1915; first compound 0.1265 µM): 0.727 | relative viability (NCI-H1915; first compound 0.4 µM): 0.735 | relative viability (NCI-H1915; first compound 4 µM): 0.515 | relative viability (NCI-H2085; first compound 0.04 µM): 0.959 | relative viability (NCI-H2085; first compound 0.1265 µM): 1.06 | relative viability (NCI-H2085; first compound 0.4 µM): 0.997 | relative viability (NCI-H2085; first compound 4 µM): 0.796 | relative viability (NCI-H647; first compound 0.04 µM): 0.346 | relative viability (NCI-H647; first compound 0.1265 µM): 0.46 | relative viability (NCI-H647; first compound 0.4 µM): 0.515 | relative viability (NCI-H647; first compound 4 µM): 0.309 | relative viability (LCLC-97TM1; first compound 0.1265 µM): 0.222 | relative viability (LCLC-97TM1; first compound 0.4 µM): 0.231 | relative viability (LCLC-97TM1; first compound 4 µM): 0.221

Source: the supplement of paper PMC10307832
